Reference: patent US8486991B2, “Enantiomerically pure phosphoindoles as HIV inhibitors” (Idenix Pharmaceuticals, Inc., priority 2006, dated 2013)
“And” between values parts separate entries of the source, which are not always exact repeats. Identical values can stand only once. Like-named read-outs stand apart in the source and are kept apart here.

What was measured:
HIV-1 W.T. (BH10) virus = experiment: microbe, parasite or virus in culture; format: cell-based
Description: The HIV-1 strains used were BH10, NL4-3 and IIIB: the cell lines were U-937 cells (human monocytes derived from a histiocytic lymphoma); MOLT-4 cells (a human T lymphoblastic leukemia cell line); H-9 cells (human lymphoblastic T cells); and MT-2 and MT-4 human leukemia T cells.

HIV-1 IIIB w.t. virus = experiment: microbe, parasite or virus in culture; format: cell-based
Method: (§1) The test articles were next profiled against a panel of HIV-1 IIIB laboratory cultivated mutants as summarized in the text below. Antiviral efficacy was determined via a CPE assay with an MTS read-out for cell viability.

[1] = tested on: HIV-1 IIIB K103R/V179D/P225H triple mutant virus; experiment: microbe, parasite or virus in culture; format: cell-based; conditions: for EC50: Human immunodeficiency virus 1, IIIB; for Fold Change, K103R/V179D/P225H: Table 16, IIIB
Method: as §1

[2] = Cellular cytotoxicity, 4 days, MTS, IM9; format: cell-based; conditions: human, IM9 cells (B lymphoblastic cell line), Table 21, read-out: Average CC50 Values ± Standard Deviation, IM9
Method: (§3) Cell viability was measured by standard MTT or MTS staining.

[3] = Cytotoxicity in PBMC, 3 days, MTT
Method: Cell viability was determined via MTT staining.

HIV-1 BH10 W.T. = experiment: Anti-HIV-1 BH10 W.T. activity in presence of HS or AAG; format: cell-based; conditions: for EC50: Human immunodeficiency virus 1
[4] = Longer term cytotoxicity, 9 days, MTS, HeLa; conditions: human, HeLa epithelial cells
Method: as §3
(§4) Cells were repeatedly treated with a range of drug concentrations (0.005 to 100 μM) for 9 (HeLa) or 12 days (HuH7, HepG2).

HIV-1 BH10 in U937 cells = experiment: Drug susceptibility assay, BH10 in U937 cells; format: cell-based; conditions: Human immunodeficiency virus 1, U-937; Table 17; read-out: Average EC50 Values ± Standard Deviation, host U937, virus BH10
Description: (§2) The virus and host-cell dependency of Compound I, Compound III and control drugs was further examined in drug susceptibility assays performed across 3 different subtype B wild-type HIV-1 strains and 5 different cell lines.

[5] = tested on: HIV-1 W.T. strains BH10, NL4-3 and IIIB; experiment: Drug susceptibility assays, 3 W.T. strains in 5 human cell lines (ranges); format: cell-based
Description: as §2

[6] = Cellular cytotoxicity, 4 days, MTS, H9; format: cell-based; conditions: human, H9 cells (lymphoblastic T cells), Table 21, read-out: Average CC50 Values ± Standard Deviation, H9
Method: as §3

[7] = Longer term cytotoxicity, HeLa, HuH7 and HepG2 (ranges); conditions: human, HuH7 and HepG2 cells (range over the three lines), HuH7 and HepG2, 9-12 day testing
Method: as §3, §4

HIV-1 W.T. (NL4-3) virus = experiment: PBMC cell assay, W.T. (NL4-3); format: cell-based
[8] = tested on: 9 different HIV-1 subtypes (A, B, C, D, F1, G, H, AE, AG), 18 viruses; experiment: PhenoSense testing, HIV-1 subtype panel; format: cell-based; conditions: Human immunodeficiency virus 1, read-out: potency range, panel of 9 different HIV-1 subtypes
Description: The activities of the test and control compounds were next tested against a subtype panel which covers all major HIV-1 subtypes or clades (A, B, C, D, F1, G, H, AE and AG). This panel was part of a 64 virus panel selected from the large library of clinical isolates Monogram BioSciences (formerly ViroLogics). Each of the subtypes in the panel was represented by 2 distinct viruses which share many sequence similarities, but also some key differences and therefore could respond differently to one or more of the drugs included in this study.

[9] = target: human DNA polymerase beta (Homo sapiens, UniProt P06746); experiment: Human cellular DNA polymerase beta assay; format: biochemical
Description: HIV RT, like other viral polymerase, shares limited structural homology with the cellular DNA polymerases responsible for normal nuclear and mitochondrial DNA synthesis and repair. This raises the formal possibility that inhibitors of HIV RT might inhibit cellular polymerases, resulting in cellular toxicity. In particular, inhibition of polymerase gamma has the potential to result in mitochondrial toxicity. The ability of Compound I and Compound III to inhibit cellular DNA polymerases was assessed using standard in vitro assays (Table 5).

[10] = tested on: HIV-1 BH10 K103N mutant virus; experiment: microbe, parasite or virus in culture; format: cell-based
Method: The activity of the compounds was also assessed with the same virus and cell type using a different assay readout based on cytopathic effect (CPE).
MT-4 cells (Source: NIH Catalog #120) were seeded onto 96-well cell culture plates (1×10^4 cells per well in 50 μL).
The final DMSO concentration in the assay was 0.5% in 120 μL. Cell cultures were then incubated at 37° C./5% CO2 for 4 days. Then, Cell Titer 96 AQueous One Solution Cell Proliferation Assay (Promega) was used to measure cell viability. Briefly, the One Solution Reagent was added directly to culture wells (20 μL/well), incubated for 5 hours, and the absorbance was recorded at 492 nm using the Sunrise Tecan Spectrophotometer.
The EC50 values were determined from the percent inhibition versus concentration data using a sigmoidal non-linear regression analysis based on four parameters with Tecan Magellan software.

[11] = Cellular cytotoxicity, 4 days, MTS, MT-4; conditions: human, MT-4 cells (leukemia T cells), Average CC50 Values ± Standard Deviation, MT-4, Table 21; 4 days, MTS
Method: Following drug exposure for 4 days, cell viability was measured by MTS staining and CC50 values were determined. Drug concentrations ranged from 0.005 μM to 100 μM.
The preceding data, allows us to calculate selectivity index (SI) values, based on the ratio of CC50 to EC50 in MT-4 cells (the standard assay used in this work).

[12] = Cellular cytotoxicity, 4 days, MTS, MT-2; format: cell-based; conditions: human, MT-2 cells (leukemia T cells), Table 21, read-out: Average CC50 Values ± Standard Deviation, MT-2
Method: as §3

[13] = Human immunodeficiency virus 1, MT2, read-out: Average EC50 Values ± Standard Deviation, W.T. (BH10)
[14] = Human immunodeficiency virus 1, MT2, read-out: Average EC50 Values ± Standard Deviation, host MT-2, virus BH10
[15] = MT4, read-out: Average EC50 Values ± Standard Deviation, K103R/V179D/P225H
[16] = MT4, read-out: EC50, K103R/V179D/P225H triple mutant virus
[17] = Table 19, AAG 1 mg/ml, read-out: Average EC50 Values ± Standard Deviation, 10% Fetal Bovine Serum + AAG
[18] = Table 19, AAG 1 mg/ml, read-out: Average EC50 Values ± Standard Deviation, 45% Human Serum + AAG
[19] = Table 19, read-out: Average EC50 Values ± Standard Deviation, 10% Fetal Bovine Serum
[20] = Table 19, read-out: Average EC50 Values ± Standard Deviation, 45% Human Serum
[21] = text b887, read-out: mean EC50 values, 45% HS+AAG
[22] = Table 20, vs 10% FBS only, listed as Cmpd III
[23] = Human immunodeficiency virus 1, Table 17, over all virus/host combinations, read-out: Mean Activity Range
[24] = Human immunodeficiency virus 1, read-out: EC50 range, 3 HIV-1 viral strains in 5 host human cell lines
[25] = Table 5, read-out: Average IC50 Values ± Standard Deviation, DNA Pol Beta
[26] = Human immunodeficiency virus 1, MT4, read-out: Average EC50 Values ± Standard Deviation, K103N

| Compound | EC50 (HIV-1 W.T. (BH10) virus; [13]) | EC50 (HIV-1 W.T. (BH10) virus; [14]) | EC50 [1, 15] | EC50 [1, 16] | CC50 at 4 days [2] | EC50 (HIV-1 BH10 W.T.; [17]) | EC50 (HIV-1 BH10 W.T.; [18]) | EC50 (HIV-1 BH10 W.T.; [19]) | EC50 (HIV-1 BH10 W.T.; [20]) | EC50 (HIV-1 BH10 W.T.; [21]) | CC50 at 9 days [4] | EC50 (HIV-1 BH10 in U937 cells) | EC50 [5, 23] | EC50 [5, 24] | CC50 at 4 days [6] | CC50 [7] | EC50 [8] | Average IC50 Values ± Standard Deviation, DNA Pol Beta ([9]; Table 5) | IC50 [9, 25] | EC50 [10, 26] | also measured |
| --- | --- | --- | --- | --- | --- | --- | --- | --- | --- | --- | --- | --- | --- | --- | --- | --- | --- | --- | --- | --- | --- |
| CO[P@](=O)(c1cc(C)cc(/C=C/C#N)c1)c1c(C(N)=O)[nH]c2ccc(Cl)cc12 [Compound III, (2-Carbamoyl-5-chloro-1H-indol-3-yl)-[3-((E)-2-cyano-vinyl)-5-methyl-phenyl]-(R)-phosphinic acid methyl ester] | 1.1 ± 0.4 nM | 1.1 ± 0.4 nM | 25 ± 6 nM | 21 to 25 nM | 50 ± 17.4 µM | 2.8 ± 0.4 nM | 32.6 ± 7.3 nM | 1.2 ± 0.4 nM | 21.9 ± 11.7 nM | 32.6 nM | 29.9 ± 2.09 µM | 1.3 ± 0.6 nM | 0.5 nM | 0.5 to 1.7 nM | 31.3 ± 5.2 µM | 23.5 to 31.5 µM | 0.2 to 2.14 nM | did not reach an IC50 | ≥ 479 µM | 0.1 ± 0.1 nM | Fold Change, W.T. (HIV-1 W.T. (BH10) virus; Table 13, MT-2): 1 fold; EC50 (HIV-1 IIIB w.t. virus; Human immunodeficiency virus 1, MT4, Table 15, IIIB, CPE, read-out: Average EC50 Values ± Standard Deviation, W.T.): 0.5 ± 0.1 nM; Fold Change, W.T. (HIV-1 IIIB w.t. virus; Table 16, IIIB): 1 fold; Fold Change, K103R/V179D/P225H [1]: 53.5±12.8 fold; Fold Change, K103R/V179D/P225H ([1]; listed as Cmpd. III): 53.5 ± 12.8 fold; CC50 at 3 days ([3]; human, stimulated primary blood mononuclear cells (PBMC)): 66.9 µM; Fold Change, 10% Fetal Bovine Serum (HIV-1 BH10 W.T.; Table 20): 1 fold; Fold Change, 45% Human Serum (HIV-1 BH10 W.T.; Table 20, vs 10% FBS only): 17.0 ± 6.3 fold; Fold Change, 45% Human Serum + AAG (HIV-1 BH10 W.T.; Table 20, vs 10% FBS only): 19.5 fold and 24.8 fold; Fold Change, 10% Fetal Bovine Serum + AAG (HIV-1 BH10 W.T.; [22]): 2.1 ± 0.5 fold; Fold Change, 45% Human Serum + AAG (HIV-1 BH10 W.T.; [22]): 24.8 ± 3.8 fold; EC50 (HIV-1 W.T. (NL4-3) virus; Human immunodeficiency virus 1, NL43, PBMC, read-out: Average EC50 Values ± Standard Deviation, W.T. (NL4-3)): 1.5 ± 0.5 nM; EC50 (HIV-1 W.T. (NL4-3) virus; Human immunodeficiency virus 1, NL43, PBMC, read-out: mean EC50, NL4-3 strain in human PBMC): 1.5 nM; EC50 ([10]; Human immunodeficiency virus 1, MT4, read-out: EC50, K103N): 0.14 ± 0.052 nM; Fold Change, K103N ([10]; Table 9, CPE): 1.1 ± 0.3 fold; CC50 at 4 days [11]: 18.6 µM; CC50 at 4 days [12]: 25.9 ± 2.1 µM |
| O=C1Nc2ccc(Cl)cc2C(C#CC2CC2)(C(F)(F)F)O1 (stereo not drawn) [EFV, 6-chloro-4-cyclopropylethynyl-4-trifluoromethyl-1,4-dihydro-2H-3,1-benzoxazin-2-one, reference compound] | 0.8 ± 0.2 nM | 0.8 ± 0.2 nM | > 1000 nM | > 1000 nM | 51 ± 1.3 µM | 5 ± 2.3 nM | 11.6 ± 7.4 nM | 1.6 ± 0.5 nM | 11.5 ± 3.9 nM | 11.6 nM | 48.6 ± 2.5 µM | 1.9 ± 0.8 nM | 0.8 ± 2.3 nM | 0.4 to 3.2 nM | 50 ± 9 µM | 48 to 81 µM | 0.4 to 3.1 nM | did not reach an IC50 | 314 ± 177 µM | 41 ± 13 nM | EC50 (HIV-1 IIIB w.t. virus; Human immunodeficiency virus 1, IIIB, MT4, read-out: Average EC50 Values ± Standard Deviation, W.T.): 1.5 ± 0.6 nM; CC50 at 3 days [3]: 70.9 ± 7.6 µM; EC50 (HIV-1 W.T. (NL4-3) virus; Human immunodeficiency virus 1, NL43, Table 14, PBMC, read-out: Average EC50 Values ± Standard Deviation, W.T. (NL4-3)): 2.1 ± 0.7 nM; IC50 ([9]; Table 6, N=4, read-out: Mean IC50 Values ± Standard Deviation, DNA Pol Beta): 314 ± 177 µM; CC50 at 4 days [11]: 44.1 ± 18.2 µM; CC50 at 4 days [12]: 24.6 ± 4.5 µM |
